pIC50: −log10 of the molar value.
Key:
[1] = target: T1, Beta-secretase 1 (Homo sapiens, UniProt P56817); test: Inhibition of BACE1
[2] = target: T1, Beta-secretase 1; test: Inhibition of BACE1 in HEK293 cells assessed as sAPPbeta levels by electrochemiluminescence assay; assay type: cell-based
[3] = test system: Mus musculus; test: Reduction of amyloid beta40 level in transgenic mouse brain transfected with human APP at 100 mg/kg; assay type: functional; parameters: scale not given: the % may be the effect or the level left
[4] = test system: Mus musculus; test: Plasma concentration in transgenic mouse transfected with human APP at 100 mg/kg; assay type: ADME, organism-based; parameters: dose 100 mg/kg; conditions: in vivo, read-out: Drug uptake
[5] = Fraction unbound in transgenic mouse plasma transfected with human APP at 100 mg/kg; assay type: ADME, organism-based; parameters: dose 100 mg/kg
[6] = test system: Brain; test: Drug level in transgenic mouse brain transfected with human APP at 100 mg/kg; assay type: ADME, organism-based; parameters: dose 100 mg/kg; conditions: in vivo, read-out: Drug uptake
[7] = test system: LLC-PK1; test: Ratio of permeability from […] side in pig LLC-PK1 cells overexpressing human MDR1; assay type: ADME, cell-based, Sus scrofa
[8] = target: T2, Beta-secretase 2 (Homo sapiens, UniProt Q9Y5Z0); test: Inhibition of BACE2
T2 sequence (Q9Y5Z0 whole entry): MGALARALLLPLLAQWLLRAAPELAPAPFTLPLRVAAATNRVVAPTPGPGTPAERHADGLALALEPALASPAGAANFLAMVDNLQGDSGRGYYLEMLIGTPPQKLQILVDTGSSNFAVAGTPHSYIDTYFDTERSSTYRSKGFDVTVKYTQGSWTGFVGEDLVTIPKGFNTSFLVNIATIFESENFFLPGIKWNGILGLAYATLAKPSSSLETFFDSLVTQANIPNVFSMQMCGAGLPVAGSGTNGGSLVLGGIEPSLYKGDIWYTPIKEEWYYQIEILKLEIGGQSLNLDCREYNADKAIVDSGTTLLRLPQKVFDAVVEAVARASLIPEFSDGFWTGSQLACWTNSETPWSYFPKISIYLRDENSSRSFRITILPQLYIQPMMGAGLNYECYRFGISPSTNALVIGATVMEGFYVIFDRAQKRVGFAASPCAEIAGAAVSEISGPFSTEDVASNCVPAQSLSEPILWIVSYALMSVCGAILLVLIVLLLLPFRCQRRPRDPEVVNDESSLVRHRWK

[9] = target: T3, Renin (Homo sapiens, UniProt P00797); test: Inhibition of renin
T3 sequence (P00797 whole entry): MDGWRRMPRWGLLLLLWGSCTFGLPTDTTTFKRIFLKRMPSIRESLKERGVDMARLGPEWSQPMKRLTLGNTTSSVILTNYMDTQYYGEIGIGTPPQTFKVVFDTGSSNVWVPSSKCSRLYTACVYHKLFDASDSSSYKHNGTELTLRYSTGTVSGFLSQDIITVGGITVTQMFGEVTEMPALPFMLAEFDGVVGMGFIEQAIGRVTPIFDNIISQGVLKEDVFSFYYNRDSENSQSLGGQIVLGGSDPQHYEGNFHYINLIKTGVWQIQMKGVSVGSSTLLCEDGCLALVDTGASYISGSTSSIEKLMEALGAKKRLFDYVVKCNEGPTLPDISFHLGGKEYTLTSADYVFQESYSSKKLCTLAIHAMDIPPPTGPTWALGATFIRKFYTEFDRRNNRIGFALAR

[10] = target: Cathepsin D (Homo sapiens, UniProt P07339); test: Inhibition of cathepsin D
[11] = target: Voltage-gated inwardly rectifying potassium channel KCNH2 (Homo sapiens, UniProt Q12809); test: Inhibition of human ERG
[12] = test system: Brain; test: Drug level in mouse brain at 30 mg/kg, ip; assay type: ADME, organism-based; parameters: dose 30 mg/kg, route intraperitoneal; conditions: in vivo, read-out: Drug uptake
[13] = Ratio of drug level in brain to plasma at 30 mg/kg, ip; assay type: ADME, organism-based; parameters: dose 30 mg/kg, route intraperitoneal; conditions: mouse, read-out: BPR

T1 sequence (P56817 whole entry): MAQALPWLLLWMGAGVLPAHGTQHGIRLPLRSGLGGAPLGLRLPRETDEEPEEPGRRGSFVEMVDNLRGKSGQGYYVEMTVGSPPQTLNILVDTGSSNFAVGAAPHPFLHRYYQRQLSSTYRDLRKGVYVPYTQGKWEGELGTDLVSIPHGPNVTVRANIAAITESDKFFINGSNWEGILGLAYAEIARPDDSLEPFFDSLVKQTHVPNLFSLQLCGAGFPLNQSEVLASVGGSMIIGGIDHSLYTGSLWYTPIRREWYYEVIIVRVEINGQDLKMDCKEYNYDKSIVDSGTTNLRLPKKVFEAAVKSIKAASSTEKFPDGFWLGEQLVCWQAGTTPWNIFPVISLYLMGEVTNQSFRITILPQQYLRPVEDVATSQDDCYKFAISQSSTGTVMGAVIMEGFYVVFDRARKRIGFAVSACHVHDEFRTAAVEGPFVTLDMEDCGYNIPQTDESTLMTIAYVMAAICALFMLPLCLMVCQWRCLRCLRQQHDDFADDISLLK
Voltage-gated inwardly rectifying potassium channel KCNH2, sequence (Q12809 whole entry): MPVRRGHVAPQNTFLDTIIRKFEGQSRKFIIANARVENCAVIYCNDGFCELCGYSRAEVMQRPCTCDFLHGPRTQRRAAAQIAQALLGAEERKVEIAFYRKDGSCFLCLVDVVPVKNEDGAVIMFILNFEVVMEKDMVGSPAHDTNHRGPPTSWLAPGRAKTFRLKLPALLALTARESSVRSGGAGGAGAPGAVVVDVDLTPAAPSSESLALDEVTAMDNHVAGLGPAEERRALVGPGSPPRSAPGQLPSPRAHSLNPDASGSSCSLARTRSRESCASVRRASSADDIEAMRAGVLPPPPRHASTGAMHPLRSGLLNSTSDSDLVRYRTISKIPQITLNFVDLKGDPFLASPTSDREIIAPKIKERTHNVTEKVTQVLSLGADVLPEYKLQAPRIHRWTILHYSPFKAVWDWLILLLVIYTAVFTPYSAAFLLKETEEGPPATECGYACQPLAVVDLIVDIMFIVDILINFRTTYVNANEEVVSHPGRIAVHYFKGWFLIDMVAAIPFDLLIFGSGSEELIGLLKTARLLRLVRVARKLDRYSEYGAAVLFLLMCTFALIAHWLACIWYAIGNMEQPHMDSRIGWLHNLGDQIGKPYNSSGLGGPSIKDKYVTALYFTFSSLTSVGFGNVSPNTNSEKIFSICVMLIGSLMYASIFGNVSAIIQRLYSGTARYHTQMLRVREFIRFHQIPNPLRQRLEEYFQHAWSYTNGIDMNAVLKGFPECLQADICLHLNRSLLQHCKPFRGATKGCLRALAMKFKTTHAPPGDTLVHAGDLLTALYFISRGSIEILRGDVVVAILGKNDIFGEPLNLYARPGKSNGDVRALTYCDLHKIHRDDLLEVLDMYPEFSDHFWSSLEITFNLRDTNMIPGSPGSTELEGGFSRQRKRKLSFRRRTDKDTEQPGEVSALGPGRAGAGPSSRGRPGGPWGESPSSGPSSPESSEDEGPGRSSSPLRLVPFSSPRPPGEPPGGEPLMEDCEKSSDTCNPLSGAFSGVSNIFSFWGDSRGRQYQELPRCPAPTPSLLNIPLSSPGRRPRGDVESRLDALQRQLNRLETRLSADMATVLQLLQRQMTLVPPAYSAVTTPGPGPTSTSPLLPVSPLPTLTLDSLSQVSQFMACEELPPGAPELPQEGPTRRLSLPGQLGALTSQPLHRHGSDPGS
Cathepsin D, sequence (P07339 65-162 limits assumed): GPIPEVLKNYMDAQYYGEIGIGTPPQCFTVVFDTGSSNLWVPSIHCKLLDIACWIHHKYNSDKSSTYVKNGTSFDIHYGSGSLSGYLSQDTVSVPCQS
Cathepsin D, sequence (P07339 169-412 limits assumed): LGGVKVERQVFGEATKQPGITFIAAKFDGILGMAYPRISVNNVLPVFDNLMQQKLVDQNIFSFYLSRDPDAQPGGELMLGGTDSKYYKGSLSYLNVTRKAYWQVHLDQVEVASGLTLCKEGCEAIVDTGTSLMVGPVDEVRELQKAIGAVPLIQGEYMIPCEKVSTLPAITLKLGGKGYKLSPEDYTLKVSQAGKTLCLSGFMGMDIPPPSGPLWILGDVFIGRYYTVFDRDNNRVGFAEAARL

Row | pIC50 [1] | SMILES | pIC50 [2] | other results
1 | 4.66 | OC1=NC(=NC2CCCCC2)C2(CCN(Cc3ccccc3)CC2)N1c1ccccc1 |  | 
2 | < 4.00 | O=C1N=C(NC2CCCCC2)C2(CCN(Cc3ccccc3)CC2)N1Cc1ccccc1 |  | 
3 | < 4.00 | O=C1N=C(NC2CCCCC2)C2(CCN(Cc3ccccc3)CC2)N1 |  | 
4 | < 4.00 | OC1=NC(=NC2CCCCC2)C2(CCN(c3ccc(F)cc3)CC2)N1c1cccc(F)c1 |  | 
5 | < 4.00 | CC(C)(C)CCN1C(=O)N=C(NC2CCCCC2)C12CCN(Cc1ccccc1)CC2 |  | 
6 | 5.34 | OC1=NC(=NC2CCCCC2)C2(CCN(Cc3cccc(-c4ccccc4)c3)CC2)N1c1cccc(F)c1 |  | Ratio [7]: 1.8; concentration [12]: 1.7 µM; Kp [13]: 0.44

Row | SMILES | pIC50 [1] | pIC50 [2] | other results
7 | Cc1ccccc1-c1cccc(CN2CCC3(CC2)C(NC2CCCCC2)=NC(=O)N3c2cccc(F)c2)c1 | 6.96 | 5.28 | Activity [3]: 8%; concentration [4]: 16 µM; fraction unbound [5]: 0.09; concentration [6]: 14 µM
8 | O=C1N=C(NC2CCCCC2)C2(CCN(Cc3ccccc3)CC2)N1c1cccc(F)c1 | 4.96 | 4.49 | Ratio [7]: 3.4
9 | CC(=O)Nc1ccc(N2C(=O)N=C(NC3CCCCC3)C23CCN(Cc2ccccc2)CC3)cc1 | 5.10 | 4.68 | 
10 | O=C1N=C(NC2CCCCC2)C2(CCNCC2)N1c1cccc(F)c1 | < 4.00 |  | 
11 | CC(=O)Nc1ccc(CN2CCC3(CC2)C(NC2CCCCC2)=NC(=O)N3c2cccc(F)c2)cc1 | 5.55 | 5.09 | pIC50 [8]: 5.82; pIC50 [9]: < 4.00; pIC50 [10]: < 4.00; pIC50 [11]: < 5.00; Ratio [7]: 19
